Laboratory results published in US20220048884A1, “NRF2 ACTIVATOR” (BIOGEN MA INC., priority 2017, published 2022).

Key:
Nrf2 target genes [1] = test: Gene expression (RT-PCR) in cultured human astrocytes; format: cell-based; conditions: 20 hours, increasing concentrations
Experimental: (§1) Human astrocytes from ScienCell (cat #1820) were grown in astrocyte medium per supplier's instructions. Cells cultured for no more than two passages were plated in 96-well plates at 40,000 cells per well for gene transcription experiments and 20,000 cell per well for glutathione and cytoprotection assays.
Primary cultures of human spinal cord astrocytes were treated with compound for 20 hours. The cells were then rinsed in PBS, lysed, and processed for RNA using Ambion Tagman™ Cells-to-CT kit. The resulting cDNA was stored at −20° C. until analysis by real-time polymerase chain reaction (RT-PCR). The cDNA mixture from Cells-to-CT was diluted 5× before loading into PCR. This yields results similar to using 6 ng of purified cDNA. RT-PCR was performed on Life Technologies QuantStudio platform using OpenArray technique according to manufacturer's protocol using the following Taqman primers: […]
The comparative CT method was used to calculate fold changes using ThermoFisher Cloud software for PCR analysis. Samples were compared to vehicle control.

human astrocytes [2] = test: Glutathione assay in human astrocytes (GSH-Glo); format: cell-based; conditions: 20-hr exposure
Experimental: as §1
Intracellular glutathione was measured after a 20-hr exposure to test compounds by a two-step process. First, cells were lysed and luciferin quantitatively generated from substrate, catalyzed by glutathione-S-transferase in the presence of analyte glutathione. Then luciferin was assayed using stabilized luciferase to produce a luminescent signal proportional to the concentration of glutathione (Promega GSH-Glo, cat #V6912).

human astrocytes [3] = test: Cytoprotection of astrocytes against sodium arsenite; format: cell-based; conditions: compound 20 hrs before 25 μM sodium arsenite, then 22 hrs
Experimental: as §1
Astrocytes were treated for 20 hrs as above, then the medium was removed and replaced with serum- and supplement-free growth medium with and without 25 μM sodium arsenite. After 22 hrs., cells were washed with PBS, fixed with 4% paraformaldehyde/4% sucrose in PBS, stained with 4′,6-Diamidino-2-phenylindole dihydrochloride (DAPI) and counted by quantitative fluorescence microscopy.

Nrf2 target genes [4] = test: Nrf2 target gene expression (qRT-PCR) in tissues of mice after oral dosing; format: in vivo, C57BL/6 mice; conditions: wild-type mice, 10 and 50 mg/kg single oral dose, 2 hours after dosing
Source text: RNA was extracted in chloroform and the aqueous phase was mixed with an equal volume of 70% ethanol. Extracted RNA was applied to RNeasy 96 plates and purified by the spin method according to the manufacturer's protocol (RNeasy 96 Universal Tissue Protocol, QIAgen, Hilden Germany).

NRF2 = test: PathHunter Nuclear Translocation assay (DiscoverX), agonist format; format: cell-based; conditions: 6 hours incubation, 10 concentrations, 30 μM top concentration
Source text: Vehicle concentration was 1%.
Microplates were read following signal generation with a PerkinElmer Envision™ instrument for chemiluminescent signal detection.

Row | SMILES | transcription of GCLC (Nrf2 target genes [1]) | transcription of HMOX1 (Nrf2 target genes [1]) | transcription of NQO1 (Nrf2 target genes [1]) | transcription of OSGIN1 (Nrf2 target genes [1]) | intracellular glutathione (human astrocytes [2]) | protection from oxidative stress-induced cell death (human astrocytes [3]) | expression of Osgin1 in brain (Nrf2 target genes [4]) | EC50 (NRF2) [µM]
1 | CCn1nnc2c(C)c([C@@H](CC(=O)O)c3ccc4c(c3)CN(C(=O)c3c(C)c(C)cc(C)c3C)CC4)ccc21 [Example 47-Ent1, (S)-3-(1-ethyl-4-methyl-1H-benzo[d][1,2,3]triazol-5-yl)-3-(2-(2,3,5,6-tetramethylbenzoyl)-1,2,3,4-tetrahydroisoquinolin-7-yl)propanoic acid] | induces transcription | induces transcription | induces transcription | induces transcription | increases intracellular glutathione | protects cells from oxidative stress-induced cell death | increases the expression | –
2 | CCn1nnc2c(C)c([C@H](c3ccc4c(c3)CN(C(=O)c3ccc(C)c(C)c3)CC4)[C@H](C)C(=O)ON)ccc21 [Example 133, amino (2S,3S)-3-[2-(3,4-dimethylbenzoyl)-3,4-dihydro-1H-isoquinolin-7-yl]-3-(1-ethyl-4-methyl-benzotriazol-5-yl)-2-methyl-propanoate] | – | – | – | – | – | – | – | < 0.1
